Read-outs that look alike come from different tables or passages of the source.
How the values were obtained:
[1] = Mouse pharmacokinetic study, IV vs oral (Example 18); format: in vivo, male CD-1 mice; settings: PO 30 mg/kg vs IV 3 mg/kg, serum by LC/MS/MS
Experimental: The plasma exposure of male CD-1 mice to indole and indole-related test articles (TAs) following intravenous (IV, 3 mg/kg) and oral (PO, 30 mg/kg) routes of administration was measured. This model was used to investigate the bioavailability of indole and indole-related TAs in mouse. Mice were selected for the study since they are an accepted species frequently used in pre-clinical evaluation of drugs intended for human use.
Male CD-1 mice (7-8 weeks old) were obtained from Charles River Laboratories (Wilmington, Mass.). Two groups (N=18 and 27) of male CD-1 mice were used for the study. Upon arrival, the animals were placed on Rodent Diet 5001 (Purina Mills, Inc., St. Louis, Mo.).
On study day (−1), indole and indole-related TAs were formulated for oral or IV dosing by mixing the formulation components with test article in the proportions described in Table 10.1. The components were mixed by vortexing and sonicating in a warming bath for 60 minutes. Animals were fasted overnight prior to start of the study. On study day (1), formulations were sonicated for an hour to make sure that no visible particles were present prior to dosing, or if present were evenly distributed in suspension. Formulated test article were stirred continuously during dosing.
All animals were weighed on study day (1) and the body weights were recorded and used for dose calculation. The animals were dosed by either PO or IV route as outlined in Table 10.2. Blood samples (0.5 mL) were collected at specified time intervals into labeled, yellow-capped Microtainer tubes. The tubes were centrifuged (8,000×g, 10 min). Serum was then pipetted off into labeled Eppendorf® tubes and frozen at −80° C. Clinical observations were recorded as needed.
Analysis of serum samples was performed by LC/MS/MS (Waters Quattro Premier, Milford, Mass.). Areas under curves (AUC) were calculated using Graphpad Prism Version 4. Bioavailability was calculated using the following equation: (Bioavailability)=(AUC0-t,oral/AUC0-t,iv)×(Doseiv/Doseoral)×100
where AUC0-t=total area under curve at the last measurable time point

[2] = molecular target: T1, porcine group 1B PLA2 (pps PLA2) (Sus scrofa, UniProt P00592); assay: Fluorimetric PPyrPM assay for group 1B PLA2 inhibition (Example 12); format: biochemical
T1 construct: purchased
T1 sequence (P00592 23-146): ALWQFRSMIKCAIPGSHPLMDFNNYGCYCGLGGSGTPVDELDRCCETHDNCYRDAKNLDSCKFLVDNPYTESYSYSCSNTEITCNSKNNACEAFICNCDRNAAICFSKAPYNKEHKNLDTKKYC
Text: (§1) In this example, a fluorimetric assay procedure was used to evaluate the indole and indole-related compounds of the invention as inhibitors of group 1B phospholipase A2 (PLA2) from human, mouse and porcine. A description of this assay is found in articles: Leslie, C C and Gelb, M H (2004) Methods in Molecular Biology “Assaying phospholipase A2 activity”, 284:229-242; Singer, A G, et al. (2002) Journal of Biological Chemistry “Interfacial kinetic and binding properties of the complete set of human and mouse groups I, II, V, X, and XII secreted phospholipases A2”, 277:48535-48549, which are incorporated herein as references.
(§2) In general, this assay used a phosphatidylmethanol substrate with a pyrene fluorophore on the terminal end of the sn-2 fatty acyl chain. Without being bound by theory, close proximity of the pyrenes from neighboring phospholipids in a phospholipid vesicle caused the spectral properties to change relative to that of monomeric pyrene. Bovine serum albumin was present in the aqueous phase and captured the pyrene fatty acid when it is liberated from the glycerol backbone owing to the PLA2-catalyzed reaction. However, a potent inhibitor can inhibit the liberation of pyrene fatty acid from the glycerol backbone. […] The effect of a given inhibitor and inhibitor concentration on human, mouse and porcine phospholipase was determined.
(§3) The following reagents and equipments were obtained from commercial vendors: • 1. Porcine group 1B phospholipase A2 • 2. 1-hexadecanoyl-2-(1-pyrenedecanoyl)-sn-glycero-3-phosphomethanol (PPyrPM) • 3. Bovine serum albumin (BSA, fatty acid free) • 4. 2-Amino-2-(hydroxymethyl)-1,3-propanediol, hydrochloride (Tris-HCl) • 5. Calcium chloride • 6. Potassium chloride • 7. Solvents: DMSO, toluene, isopropanol, ethanol • 8. Molecular Devices SPECTRAmax microplate spectrofluorometer • 9. Costar 96 well black wall/clear bottom plate
(§4) The following reagents were prepared: • 10. PPyrPM stock solution (1 mg/ml) in toluene:isopropanol (1:1) • 11. ILY104 inhibitor stock solution (10 mM) in DMSO • 12. 3% (w/v) bovine serum albumin (BSA) • 13. Stock buffer: 50 mM Tris-HCl, pH 8.0, 50 mM KCl and 1 mM CaCl2
The following procedure was performed to evaluate the inhibitory potency of the evaluated compounds. • 14. An assay buffer was prepared by adding 3 ml 3% BSA to 47 ml stock buffer. • 15. Solution A was prepared by adding serially diluted inhibitors to the assay buffer. Inhibitors were three-fold diluted in stock buffer in a series of 8 from 15 uM. • 16. Solution B was prepared by adding human, mouse or porcine PLA2 to the assay buffer. This solution was prepared immediately before use to minimize enzyme activity loss. • 17. Solution C was prepared by adding 30 ul PPyrPM stock solution to 90 ul ethanol, and then all 120 ul of PPyrPM solution was transferred drop-wise over approximately 1 min to the continuously stirring 8.82 ml assay buffer to form a final concentration of 4.2 uM PPyrPM vesicle solution. • 18. The SPECTRAmax microplate spectrofluorometer was set at 37° C. • 19. 100 ul of solution A was added to each inhibition assay well of a costar 96 well black wall/clear bottom plate • 20. 100 ul of solution B was added to each inhibition assay well of a costar 96 well black wall/clear bottom plate. • 21. 100 ul of solution C was added to each inhibition assay well of a costar 96 well black wall/clear bottom plate. • 22. The plate was incubated inside the spectrofluorometer chamber for 3 min. • 23. The fluorescence was read using an excitation of 342 nm and an emission of 395 nm.
Evaluated compounds were tested in duplicate and their values were averaged to plot the inhibition curve and calculate the IC50. Compared to uninhibited controls, lower fluorescent signal at an emission of 395 nm in test reactions evidenced inhibition of PLA2. […] Compounds initially found to be active were repeated to confirm their inhibitory activity. […]

[3] = molecular target: T2, human group 1B PLA2 (hps PLA2) (Homo sapiens, UniProt P04054); assay: as above; format: biochemical; settings: for inhibition at 15 µM: read-out: ILYPSA % inhibition at 15 μM hps PLA2
T2 construct: made in house; host or cells: E. coli
T2 sequence (P04054 23-148): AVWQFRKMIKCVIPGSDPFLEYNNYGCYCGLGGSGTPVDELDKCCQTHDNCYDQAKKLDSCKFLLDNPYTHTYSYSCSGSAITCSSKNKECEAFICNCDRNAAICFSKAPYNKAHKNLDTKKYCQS
Text: as §1, §2
(§5) Recombinant human and mouse group 1B PLA2 were cloned and expressed in E. coli as insoluble inclusion bodies. The inclusion bodies were isolated and purified by sonicating cell pellet in lysis buffer (50 mM Tris-HCl pH 7.0, 250 mM NaCl, 0.5% Triton 100), centrifugation at 12,000×g, and washing three times in washing buffer (20 mM Tris-HCl pH 7.0, 250 mM NaCl, 0.5% Triton 100). Then the inclusion bodies were dissolved in dissolving buffer (50 mM Tris-HCl pH 7.0, 250 mM NaCl, 6 M Guanidine-HCl, 1 mM DTT) and dialyzed four times against 10 volumes of refolding buffer (20 mM Tris-HCl pH 7.0, 250 mM NaCl, 0.5M Guanidine-HCl, 5% (w/w) Glycerol, 2 mM reduced glutathione and 0.4 mM oxidized glutathione) at 4° C. The correctly refolded proteins were concentrated using Amicon Stirred cell under nitrogen pressure (<70 psi) and dialyzed against 10 volumes of 50 mM Tris-HCl pH 7.0, 250 mM NaCl and 5% (w/w) glycerol. Human and mouse group 1B PLA2 were further purified by High S ion exchange and gel filtration columns.
as §3, §4
(§6) The following procedure was performed to evaluate the inhibitory potency of the evaluated compounds. • 14. An assay buffer was prepared by adding 3 ml 3% BSA to 47 ml stock buffer. • 15. Solution A was prepared by adding serially diluted inhibitors to the assay buffer. Inhibitors were three-fold diluted in stock buffer in a series of 8 from 15 uM. • 16. Solution B was prepared by adding human, mouse or porcine PLA2 to the assay buffer. This solution was prepared immediately before use to minimize enzyme activity loss. • 17. Solution C was prepared by adding 30 ul PPyrPM stock solution to 90 ul ethanol, and then all 120 ul of PPyrPM solution was transferred drop-wise over approximately 1 min to the continuously stirring 8.82 ml assay buffer to form a final concentration of 4.2 uM PPyrPM vesicle solution. • 18. […]

[4] = molecular target: T3, mouse group 1B PLA2 (mps PLA2) (Mus musculus, UniProt Q9Z0Y2); assay: as above; format: biochemical; settings: for inhibition at 15 µM: read-out: ILYPSA % inhibition at 15 μM mps PLA2
T3 construct: made in house; host or cells: E. coli
T3 sequence (Q9Z0Y2 23-146): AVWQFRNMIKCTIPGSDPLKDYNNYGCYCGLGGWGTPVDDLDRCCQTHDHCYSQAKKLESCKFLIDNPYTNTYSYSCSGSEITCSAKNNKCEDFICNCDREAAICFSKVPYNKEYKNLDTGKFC
Text: as §1, §2, §5, §3, §4, §6

[5] = porcine pancreas secreted PLA2, read-out: ILYPSA IC50 pps PLA2
[6] = human pancreas secreted PLA2, read-out: ILYPSA IC50 hps PLA2
[7] = mouse pancreas secreted PLA2, read-out: ILYPSA IC50 mps PLA2

Cc1c(C(=O)C(N)=O)c2c(OCC(=O)NS(=O)(=O)CCCC(=O)O)cccc2n1Cc1ccccc1 [ILY-IV-40, 4-[2-(3-Aminooxalyl-1-benzyl-2-methyl-1H-indol-4-yloxy)-acetylsulfamoyl]-butyric acid]
Bioavailability (%) [1]: 0.50%

Cc1c(C(=O)C(N)=O)c2c(OCC(=O)O)nccc2n1Cc1ccccc1 [ILY-II-1, (3-Aminooxalyl-1-benzyl-2-methyl-1H-pyrrolo[3,2-c]pyridin-4-yloxy)-acetic acid]
bioavailability ([1]; male, CD-1, mouse): 11%
IC50 [2]: 70 nM
IC50 [3]: 1150 nM
IC50 [4]: 230 nM

Cc1c(C(=O)C(N)=O)c2c(OCC(=O)O)cccc2n1CCCCCCCCCCCCSCCCCCCCCCCCCn1c(C)c(C(=O)C(N)=O)c2c(OCC(=O)O)cccc21 [IL-V-29, 2,2′-(1,1′-(12,12′-thiobis(dodecane-12,1-diyl))bis(3-(2-amino-2-oxoacetyl)-2-methyl-1H-indole-4,1-diyl))bis(oxy)diacetic acid]
IC50 [2, 5]: 530 nM
IC50 [3, 6]: 460 nM
IC50 [4, 7]: 790 nM

Cc1c(C(=O)C(N)=O)c2c(OCC(=O)O)cccc2n1CCCCCCCCCCCCN(CCCCCCCCCCCCn1c(C)c(C(=O)C(N)=O)c2c(OCC(=O)O)cccc21)Cc1ccccc1 [ILY-V-31, 2,2′-(1,1′-(12,12′-(benzylazanediyl)bis(dodecane-12,1-diyl))bis(3-(2-amino-2-oxoacetyl)-2-methyl-1H-indole-4,1-diyl))bis(oxy)diacetic acid]
IC50 [2, 5]: 20 nM
IC50 [3, 6]: 100 nM
IC50 [4, 7]: 30 nM

Cc1c(C(=O)C(N)=O)c2c(OCC(=O)O)ccnc2n1Cc1ccccc1 [ILY-VII-1, 2-(1-Benzyl-4-yloxyacetic acid-2-methyl-1H-pyrrolo[2,3-b]pyridin-3-yl)-2-oxoacetamide]
IC50 [2, 5]: 60 nM
IC50 [3, 6]: 13700 nM
IC50 [4, 7]: 2140 nM

Cc1c(C(=O)C(N)=O)c2c(OCC(=O)O)ccc(N)c2n1Cc1ccccc1 [ILY-IV-35]
IC50 [2, 5]: 320 nM
IC50 [3, 6]: 8840 nM
IC50 [4, 7]: 1740 nM

Cc1c(C(=O)C(N)=O)c2c(OCC(=O)NS(C)(=O)=O)cccc2n1Cc1ccccc1 [ILY-IV-21, 1-Benzyl-2-methyl-4-methanesulfonamidoylmethyloxy-1H-indol-3-glyoxylamide]
IC50 [2, 5]: < 20 nM
IC50 [3, 6]: 1160 nM
IC50 [4, 7]: 320 nM

CCCCCCCCn1c(C)c(C(=O)C(N)=O)c2c(OCC(=O)O)cccc21 [ILY-V-2]
IC50 [2, 5]: 30 nM
IC50 [3, 6]: 640 nM
IC50 [4, 7]: 210 nM

C=CCn1c(C)c(C(=O)C(N)=O)c2c(OCC(=O)O)cccc21 [ILY-V-10]
IC50 [2, 5]: 460 nM
inhibition at 15 µM ([3]; human pancreas secreted PLA2): 64%
IC50 [4, 7]: 3210 nM

Cc1c(C(=O)C(N)=O)c2c(OCC(=O)O)cccc2n1Cc1ccc2ccccc2c1 [ILY-V-9]
IC50 [2, 5]: 60 nM
IC50 [3, 6]: 2110 nM
IC50 [4, 7]: 710 nM

COC(=O)C(Oc1cccc2c1c(C(=O)C(N)=O)c(C)n2Cc1ccccc1)C(=O)O (centres unmarked) [ILY-IV-59]
inhibition at 15 µM ([2]; read-out: ILYPSA % inhibition at 15 μM pps PLA2, 15 μM, porcine pancreas secreted PLA2): 56.8%
inhibition at 15 µM ([3]; human pancreas secreted PLA2): 10.2%
inhibition at 15 µM ([4]; mouse pancreas secreted PLA2): 35.7%

Cc1c(C(=O)C(N)=O)c2c(OC(C(N)=O)C(C)C)cccc2n1Cc1ccccc1 (centres unmarked) [ILY-IV-45, 2-(3-(2-amino-2-oxoacetyl)-1-benzyl-2-methyl-1H-indol-4-yloxy)-3-methylbutanamide]
IC50 [2, 5]: 1030 nM
inhibition at 15 µM ([3]; human pancreas secreted PLA2): 74%
inhibition at 15 µM ([4]; mouse pancreas secreted PLA2): 65.5%

Cc1c(C(=O)C(N)=O)c2c(OC(CCC(=O)O)C(=O)O)cccc2n1Cc1ccccc1 (centres unmarked) [ILY-IV-33, 2-(3-Aminooxalyl-1-benzyl-2-methyl-1H-indol-4-yloxy)-pentanedioic acid]
IC50 [2, 5]: 3760 nM
inhibition at 15 µM ([3]; human pancreas secreted PLA2): 35.9%
inhibition at 15 µM ([4]; mouse pancreas secreted PLA2): 50.3%

Cc1c(C(=O)C(N)=O)c2c(OCC(=O)O)ccc(NS(C)(=O)=O)c2n1Cc1ccccc1 [ILY-IV-37]
IC50 [2, 5]: 280 nM
IC50 [3, 6]: 3480 nM
IC50 [4, 7]: 1020 nM
